Source: US11590134B2, “Aminopyrimidine amide autophagy inhibitors and methods of use thereof” (Deciphera Pharmaceuticals, LLC, priority 2019, dated 2023)

How the values were obtained:
[1] = molecular target: T1, ULK1 kinase (Homo sapiens, UniProt O75385); test: Biochemical assay for ULK1.2 (coupled pyruvate kinase/lactate dehydrogenase assay); conditions: 19 nM ULK1 (residues 1-314), myelin basic protein substrate, 1 mM ATP
T1 construct: purchased Eurofins 14-959
T1 sequence (O75385 with tags, fused parts or gaps): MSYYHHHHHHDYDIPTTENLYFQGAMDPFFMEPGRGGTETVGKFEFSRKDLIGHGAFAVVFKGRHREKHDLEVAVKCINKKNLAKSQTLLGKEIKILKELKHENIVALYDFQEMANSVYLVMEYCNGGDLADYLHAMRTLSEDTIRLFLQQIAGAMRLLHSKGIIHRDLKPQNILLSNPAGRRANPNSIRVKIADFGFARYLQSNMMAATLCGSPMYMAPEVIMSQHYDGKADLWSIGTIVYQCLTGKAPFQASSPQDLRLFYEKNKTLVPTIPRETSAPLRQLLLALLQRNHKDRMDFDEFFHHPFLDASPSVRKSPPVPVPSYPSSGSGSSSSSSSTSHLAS
Description: (§1) Activity of ULK1 kinase was determined spectroscopically using a coupled pyruvate kinase/lactate dehydrogenase assay that continuously monitors the ATP hydrolysis-dependent oxidation of NADH (e.g., Schindler et al. Science (2000) 289: 1938-1942). Assays were conducted in 384-well plates (100 uL final volume) using 19 nM ULK1 (Eurofins CAT #14-959), 0.25 mg/mL myelin basic protein, 1.5 units pyruvate kinase, 2.1 units lactate dehydrogenase, 1 mM phosphoenol pyruvate, 0.28 mM NADH and 1 mM ATP in assay buffer (100 mM Tris, pH 7.5, 15 mM MgCl2, 0.5 mM DTT, 0.1% octyl-glucoside, 0.002% (w/v) BSA, and 0.002% Triton X-100). Inhibition of ULK1 was measured by adding serial diluted test compound (final assay concentration of 1% DMSO). A decrease in absorption at 340 nm was monitored continuously for 6 hours at 30° C. on a multi-mode microplate reader (BioTek). The reaction rate was calculated using the 2-3 h time frame. The reaction rate at each concentration of compound was converted to percent inhibition using controls (i.e. reaction with no test compound and reaction with a known inhibitor) and IC50 values were calculated by fitting a four-parameter sigmoidal curve to the data using Prism (GraphPad software).

[2] = molecular target: T2, LRRK2 kinase (Homo sapiens, UniProt Q5S007); test: Biochemical assay for LRRK2 (coupled pyruvate kinase/lactate dehydrogenase assay); conditions: 26.4 nM LRRK2 (residues 970-2528), peptide substrate, 1 mM ATP
T2 construct: (residues 970-2528; ID NO; 4); purchased Thermo Fisher
Description: Activity of LRRK2 kinase was determined spectroscopically using a coupled pyruvate kinase/lactate dehydrogenase assay that continuously monitors the ATP hydrolysis-dependent oxidation of NADH (e.g., Schindler et al. Science (2000) 289: 1938-1942). Assays were conducted in 384-well plates (100 uL final volume) using 26.4 nM LRRK2 (Thermo Fisher), 0.1 mM peptide substrate (RLGRDKYKTLRQIRQ (SEQ ID NO: 6)), 1.5 units pyruvate kinase, 2.1 units lactate dehydrogenase, 1 mM phosphoenol pyruvate, 0.28 mM NADH and 1 mM ATP in assay buffer (100 mM Tris, pH 7.5, 15 mM MgCl2, 0.5 mM DTT, 0.004% (w/v) BSA, and 0.004% Triton X-100). Inhibition of LRRK2 was measured by adding serial diluted test compound (final assay concentration of 1% DMSO). A decrease in absorption at 340 nm was monitored continuously for 6 hours at 30° C. on a multi-mode microplate reader (BioTek). The reaction rate was calculated using the 2-3 h time frame. The reaction rate at each concentration of compound was converted to percent inhibition using controls (i.e. reaction with no test compound and reaction with a known inhibitor) and IC50 values were calculated using software routines in Prism (GraphPad software).

[3] = molecular target: T3, ULK2 kinase (Homo sapiens, UniProt Q8IYT8); test: Biochemical assay for ULK2 (coupled pyruvate kinase/lactate dehydrogenase assay); conditions: 9.7 nM ULK2 (residues 1-306), myelin basic protein substrate, 1 mM ATP; read-out: ULK2.2
T3 construct: purchased Eurofins 14-772
Description: as §1, with “of ULK2” for “of ULK1”, “using 9.7” for “using 19”, “nM ULK2” for “nM ULK1”, “CAT #14-772),” for “CAT #14-959),”

[4] = test system: ULK kinase substrate ATG13 (phospho-Serine 318 ATG13) in A549 cells; test: pATG13 ELISA in mutant KRas A549 cells in combination with trametinib; type: cell-based; conditions: A549 (KRAS mutant) human lung cancer cells, with 250 nM trametinib, overnight
Description: A549 (KRAS mutant) human lung cancer cells (6,000 cells/well) were added to a 384-well tissue-culture treated plate in 50 μL of pre-warmed DMEM medium supplemented with 10% characterized fetal bovine serum (Invitrogen, Carlsbad, Calif.), 100 units/mL penicillin G, and 100 μg/mL streptomycin and allowed to grow overnight at 37° C., 5% CO2, and 95% humidity. The following day, 10 μL of media containing trametinib or DMSO as a control was added to wells. The final concentration of trametinib in wells was 250 nM. A dose response of a test compound (0.6 μL per well) was added. DMSO (0.6 μL) was added to control wells. The plate was briefly shaken to mix wells and then incubated at 37° C. overnight. The next day, the media was aspirated and cells were washed with Dulbecco's Phosphate Buffered Saline (Gibco). Cells were lysed using MPER lysis buffer (Pierce, Rockford, Ill.) containing Halt Phosphatase and Protease Inhibitors (Pierce, Rockford, Ill.) and Phosphatase inhibitor cocktail 2 (Sigma, St. Louis, Mo.) at 4° C. for 10 minutes with shaking.
Cellular levels of phospho-Serine 318 ATG13 (pATG13) were measured via an ELISA method. Total ATG13 Antibody (Cell Signaling Cat #13273) was used to coat the wells. The plate was incubated at 4° C. overnight and washed with ELISA wash buffer (Biolegend Cat #421601). The wells were then blocked with assay diluent (Biolegend Cat #421203) for 1 hour at room temperature. Plate wells were washed with ELISA wash buffer. Cell lysate was added to wells and incubated at room temperature for 2 hours. Plate wells were washed with ELISA wash buffer. Biotinylated pS318-ATG13 antibody (Rockland Immunochemicals Cat #600-401-C49) was diluted in assay diluent and added to each well and incubated at room temperature for 1 hour. Plate wells were washed with ELISA wash buffer. Streptavidin linked to horseradish peroxidase (Thermo Fisher Cat #21140) was diluted in assay diluent and added to each well and incubated at room temperature for 1 hour. Plate wells were washed with ELISA wash buffer. High sensitivity TMB substrate (Biolegend Cat #421101) was added to each well and incubated at room temperature for 20 minutes. The reaction was stopped with 2N Sulfuric Acid. The plate was analyzed at on a plate reader measuring absorbance at 450 nm and 540 nm (background). Signal was calculated by first subtracting the background absorbance at 540 nm from the absorbance at 450 nm for each well. Next, the background corrected absorbance at 450 nm from blank wells was subtracted from test wells. Data was compared to control wells to determine % ATG13 phosphorylation. GraphPad Prism was used to calculate IC50 values.

T2 sequence (Q5S007 with tags, fused parts or gaps): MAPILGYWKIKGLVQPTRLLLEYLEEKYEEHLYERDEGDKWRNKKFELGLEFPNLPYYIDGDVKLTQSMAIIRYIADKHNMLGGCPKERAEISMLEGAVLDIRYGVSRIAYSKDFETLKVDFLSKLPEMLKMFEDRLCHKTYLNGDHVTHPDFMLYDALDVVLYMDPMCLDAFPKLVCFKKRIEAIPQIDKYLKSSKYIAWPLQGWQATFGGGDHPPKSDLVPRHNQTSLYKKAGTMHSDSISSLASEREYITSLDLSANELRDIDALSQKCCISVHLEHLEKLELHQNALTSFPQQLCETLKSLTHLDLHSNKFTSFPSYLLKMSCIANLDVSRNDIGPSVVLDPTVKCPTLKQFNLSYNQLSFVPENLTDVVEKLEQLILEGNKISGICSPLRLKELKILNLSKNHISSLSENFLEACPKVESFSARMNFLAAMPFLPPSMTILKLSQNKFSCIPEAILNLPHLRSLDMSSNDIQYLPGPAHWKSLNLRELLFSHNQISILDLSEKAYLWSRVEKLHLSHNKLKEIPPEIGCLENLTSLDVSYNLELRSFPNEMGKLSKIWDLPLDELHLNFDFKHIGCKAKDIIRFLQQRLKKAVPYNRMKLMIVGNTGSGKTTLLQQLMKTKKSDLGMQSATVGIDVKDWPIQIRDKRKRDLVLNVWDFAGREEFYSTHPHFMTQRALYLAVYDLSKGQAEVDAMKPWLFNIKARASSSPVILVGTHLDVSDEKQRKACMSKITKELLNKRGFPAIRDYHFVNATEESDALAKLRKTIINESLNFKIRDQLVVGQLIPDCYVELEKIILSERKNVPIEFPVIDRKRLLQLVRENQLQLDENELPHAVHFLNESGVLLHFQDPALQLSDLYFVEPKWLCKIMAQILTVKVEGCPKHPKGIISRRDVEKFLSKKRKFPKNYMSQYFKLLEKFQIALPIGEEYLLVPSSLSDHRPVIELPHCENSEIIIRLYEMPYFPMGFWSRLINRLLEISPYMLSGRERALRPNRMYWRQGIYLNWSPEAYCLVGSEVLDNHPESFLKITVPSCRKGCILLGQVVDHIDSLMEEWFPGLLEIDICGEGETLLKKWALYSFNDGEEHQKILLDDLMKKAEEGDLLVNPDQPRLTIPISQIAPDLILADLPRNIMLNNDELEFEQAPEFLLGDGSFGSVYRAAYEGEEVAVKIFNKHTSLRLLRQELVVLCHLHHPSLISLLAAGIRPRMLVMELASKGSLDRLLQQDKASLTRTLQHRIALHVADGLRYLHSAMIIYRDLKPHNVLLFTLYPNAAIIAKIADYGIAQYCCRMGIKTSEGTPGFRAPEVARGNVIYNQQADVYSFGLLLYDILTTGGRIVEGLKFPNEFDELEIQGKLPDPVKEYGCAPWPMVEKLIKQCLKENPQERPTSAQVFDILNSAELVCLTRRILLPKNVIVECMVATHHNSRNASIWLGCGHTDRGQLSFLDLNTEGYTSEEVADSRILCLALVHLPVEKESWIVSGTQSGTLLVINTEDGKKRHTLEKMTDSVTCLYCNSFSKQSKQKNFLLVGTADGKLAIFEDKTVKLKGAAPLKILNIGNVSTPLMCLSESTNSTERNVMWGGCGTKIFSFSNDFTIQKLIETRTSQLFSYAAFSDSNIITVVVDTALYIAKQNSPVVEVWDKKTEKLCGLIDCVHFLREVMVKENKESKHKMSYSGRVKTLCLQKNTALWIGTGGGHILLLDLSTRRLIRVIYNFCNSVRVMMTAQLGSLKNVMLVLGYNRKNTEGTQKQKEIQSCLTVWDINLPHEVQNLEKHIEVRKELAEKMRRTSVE
T3 sequence (Q8IYT8 with tags, fused parts or gaps): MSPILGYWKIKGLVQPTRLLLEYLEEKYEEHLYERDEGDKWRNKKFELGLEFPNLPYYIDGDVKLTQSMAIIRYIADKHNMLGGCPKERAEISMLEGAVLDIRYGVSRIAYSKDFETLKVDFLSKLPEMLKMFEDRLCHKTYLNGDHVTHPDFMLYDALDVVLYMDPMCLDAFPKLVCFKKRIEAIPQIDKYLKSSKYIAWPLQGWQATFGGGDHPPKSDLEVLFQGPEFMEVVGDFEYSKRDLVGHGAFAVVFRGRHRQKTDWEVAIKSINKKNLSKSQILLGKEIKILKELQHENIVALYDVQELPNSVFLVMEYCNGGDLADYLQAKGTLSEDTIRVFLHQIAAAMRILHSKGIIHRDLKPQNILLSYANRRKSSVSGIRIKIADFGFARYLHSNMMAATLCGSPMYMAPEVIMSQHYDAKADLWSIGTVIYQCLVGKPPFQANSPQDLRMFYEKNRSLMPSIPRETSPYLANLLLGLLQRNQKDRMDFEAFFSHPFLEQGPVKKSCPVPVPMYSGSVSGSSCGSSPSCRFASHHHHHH

IC50 [1] | IC50 [2] | IC50 [3] | IC50 [4] | Structure (SMILES)
0.001 to 0.025 µM | 0.001 to 0.1 µM | 0.025 to 0.1 µM | 0.1 to 0.3 µM | Cc1cc(C2CCNCC2)ccc1Nc1ncc(C(F)(F)F)c(NCCCN(C)C(=O)C2CCC2)n1 [Example 16]
0.1 to 0.5 µM | 0.001 to 0.1 µM | – | – | Cc1cc(C2CCNCC2)ccc1Nc1ncc(Cl)c(NCCCN(C)C(=O)C2CCC2)n1 [Example 15]
0.5 to 20 µM | 0.6 to 20 µM | – | – | COc1cc(N2CCN(C)CC2)ccc1Nc1ncc(C2CC2)c(NCCCNC(=O)C2CCC2)n1 [Example 11]
0.1 to 0.5 µM | 0.001 to 0.1 µM | – | – | Cc1cc(C2CCN(C)CC2)ccc1Nc1ncc(Cl)c(NCCCN(C)C(=O)C2CCC2)n1 [Example 17]
0.001 to 0.025 µM | 0.001 to 0.1 µM | 0.025 to 0.1 µM | – | Cc1nn(C2CCN(C)CC2)cc1Nc1ncc(Cl)c(NCCCN(C)C(=O)C2CCC2)n1 [Example 27]
0.001 to 0.025 µM | 0.001 to 0.1 µM | – | 0.1 to 0.3 µM | Cc1cc(N2CCN(C)CC2)ccc1Nc1ncc(C(F)(F)F)c(NCCCNC(=O)C2CCC2)n1 [Example 2]
0.001 to 0.025 µM | 0.001 to 0.1 µM | – | – | Cc1cc(C2CCN(C)CC2)ccc1Nc1ncc(C(F)(F)F)c(NCCCN(C)C(=O)C2CCC2)n1 [Example 18]
0.1 to 0.5 µM | 0.6 to 20 µM | – | – | Cc1nn(C2CCN(C)CC2)cc1Nc1ncc(C2CC2)c(NCCCNC(=O)C2CCC2)n1 [Example 25]

Second part, the molecule before the results:

Structure (SMILES) | IC50 [1] | IC50 [2] | IC50 [3] | IC50 [4]
Cc1cc(N2CCN(C)CC2)ncc1Nc1cc(NCCCNC(=O)C2CCC2)c(C(F)(F)F)cn1 [Example 31, N-(3-((2-((4-methyl-6-(4-methylpiperazin-1-yl)pyridin-3-yl)amino)-5-(trifluoromethyl)pyridin-4-yl)amino)propyl)cyclobutanecarboxamide] | 0.1 to 0.5 µM | – | – | –
Cc1nn(C2CCN(CC(C)C)CC2)cc1Nc1ncc(C(F)(F)F)c(NCCCNC(=O)C2CCC2)n1 [Example 23] | 0.001 to 0.025 µM | 0.001 to 0.1 µM | 0.025 to 0.1 µM | 0.01 to 0.1 µM
Cc1cc(N2CCOCC2)ncc1Nc1ncc(C(F)(F)F)c(NCCCNC(=O)C2CCC2)n1 [Example 6] | 0.5 to 20 µM | 0.3 to 0.6 µM | 0.5 to 20 µM | –
[2H]C([2H])([2H])N1CCC(n2cc(Nc3ncc(Br)c(NCCCNC(=O)C4CCC4)n3)c(C)n2)CC1 [Example 29] | 0.025 to 0.1 µM | 0.1 to 0.3 µM | – | –
Cc1nn(C2CCNCC2)cc1Nc1ncc(C(F)(F)F)c(NCCCNC(=O)C2CCC2)n1 [Example 21, N-(3-((2-((3-methyl-1-(piperidin-4-yl)-1H-pyrazol-4-yl)amino)-5-(trifluoromethyl)pyrimidin-4-yl)amino)propyl)cyclobutanecarboxamide] | 0.001 to 0.025 µM | 0.001 to 0.1 µM | 0.025 to 0.1 µM | 0.1 to 0.3 µM
Cc1cc(N2CCN(C)CC2)ncc1Nc1ncc(C(F)(F)F)c(NCCCNC(=O)C2CCC2)n1 [Example 5] | 0.1 to 0.5 µM | 0.6 to 20 µM | 0.1 to 0.5 µM | –
Cc1nn(C2CCNCC2)cc1Nc1ncc(C2CC2)c(NCCCNC(=O)C2CCC2)n1 [Example 24] | 0.1 to 0.5 µM | 0.6 to 20 µM | – | –
[2H]C([2H])([2H])N1CCC(n2cc(Nc3ncc(C(F)(F)F)c(NCCCNC(=O)C4CCC4)n3)c(C)n2)CC1 [Example 20] | 0.001 to 0.025 µM | 0.1 to 0.3 µM | 0.025 to 0.1 µM | 0.1 to 0.3 µM
Cc1nn(C2CCN(C(C)C)CC2)cc1Nc1ncc(C(F)(F)F)c(NCCCNC(=O)C2CCC2)n1 [Example 22, N-(3-((2-((1-(1-isopropylpiperidin-4-yl)-3-methyl-1H-pyrazol-4-yl)amino)-5-(trifluoromethyl)pyrimidin-4-yl)amino)propyl)cyclobutanecarboxamide] | 0.025 to 0.1 µM | 0.001 to 0.1 µM | – | 0.3 to 0.6 µM
